Data on one compound can be found in patent publication US20110288101A1, “SURGICAL CO[…]-RECEPTOR AGONISTS” (ALCON RESEARCH, LTD., priority 2010, published 2011).

The assay relates to rabbit corneal endothelial cells. Put plainly: MTS cell viability assay, protection against hydrogen peroxide oxidative stress. The following applies: rabbit corneal endothelial cells in serum-free medium; 70 μM H2O2; 24 hours; 1 to 300 μM (+)-pentazocine; p<0.05 vs H2O2 control; FIG. 1. The format is cell-based. The procedure:
Studies were performed to determine whether (+)-pentazocine can protect corneal endothelial cells. Hydrogen peroxide was employed to produce oxidative stress to rabbit corneal endothelial cells in vitro.
Briefly, rabbit corneal endothelial cells maintained in serum-free medium were treated with the sigma-1 receptor agonist (+)-pentazocine and 70 μM H2O2 for 24 hours. At the end point, a cell viability assay (MTS assay) is performed. The MTS assay is a laboratory test and standard colorimetric assay for measuring the activity of enzymes that reduce MTS+PMS to formazan, producing a purple color. MTS (3-(4,5-dimethylthiazol-2-yl)-5-(3-carboxymethoxyphenyl)-2-(4-sulfophenyl)-2H-tetrazolium), in the presence of phenazine methosulfate (PMS), produces a water-soluble formazan product that has an absorbance maximum at 490-500 nm in phosphate-buffered saline. These reduction reactions take place only when reductase enzymes are active, and the production of formazan product is therefore used as a measure of cell viability.
Lower absorbance numbers correlate to reduced cell viability.
A general note: Tetrazolium dyes change colour on reduction, which living cells bring about.

On to `CC(C)=CCN1CCC2(C)c3cc(O)ccc3CC1C2C` (single isomer, unassigned; (+)) [(+)-pentazocine], for which the “protection of cell viability (MTS absorbance) against damage induced by hydrogen peroxide” value is listed as “dose-dependent protection”.
